Results as given in patent publication US6491951B1, “Soluble compositions of toremifene” (Orion Corporation, priority 1998, dated 2002).

What was measured:
[1] = Water solubility of toremifene and its salts; assay type: physicochemical; settings: compared with toremifene citrate
[2] = Dissolving toremifene base in aqueous compositions with a solubility enhancing acid; assay type: physicochemical
From the text: The compositions of the invention can be prepared e.g. by mixing an amount of a solubility enhancing acid of the invention and purified water, adding thereafter toremifene base or a pharmaceutically acceptable salt thereof and agitating the mixture. pH may be adjusted with a water solution of corresponding acid salt or e.g. sodium hydroxide. The solubility enhancing agent is preferably used in molar excess with respect to toremifene or a pharmaceutically acceptable salt thereof. More preferably, the molar excess is at least about 1.5 fold, and most preferably at least about 2 fold, e.g. from about 2 to about 100 fold, typically from about 2 to about 10 fold.
The experiments also compare the effect of solubility enhancing agents of the invention to other acids such as hydrochloric acid, gluconic acid or citric acid.
Glacial acetic acid and purified water were mixed, toremifene base was added and dissolved. pH of the solution was about 4.
Lactic acid (85% water solution) and purified water were mixed, toremifene base was added and dissolved.
Formic acid and purified water were mixed, toremifene base was added and dissolved.
Toremifene base was dissolved in methanesulfonic acid, then purified water was added.
Lactic acid (85% water solution) and purified water were mixed, toremifene base was added and dissolved. pH was adjusted to about 5 by sodium lactate (50% water solution).
Manufactured as above but pH was adjusted to about 5 with sodium hydroxide.
Hydrochloric acid and purified water were mixed, toremifene base was added. Toremifene was not dissolved.
Sodium gluconate, concentrated hydrochloric acid and purified water were mixed, toremifene base was added. Toremifene was not dissolved.
Toremifene base and 30% water solution of citric acid were mixed together and ethanol was added gradually. Toremifene was not dissolved.

pKa value of toremifene = assay type: physicochemical
[3] = background statement; cited from earlier work

## toremifene mesylate
[1]
  Solubility in distilled water relative to toremifene citrate: about 70 times higher

## CN(C)CCOc1ccc(/C(=C(/CCCl)c2ccccc2)c2ccccc2)cc1 [Toremifene base, toremifene]
[2]; Example 1: 18.4% toremifene base, glacial acetic acid 9.0%, purified water 72.6%, pH about 4
  Dissolution of toremifene base: dissolved
[2]; Example 1: glacial acetic acid 9.0%, purified water 72.6%, pH of the solution about 4
  Toremifene base content of the aqueous solution (by weight of the composition): 18.4%
[2]; Example 2: 52.6% toremifene base, lactic acid (85%) 24.0%, purified water 23.4%
  Dissolution of toremifene base: dissolved
[2]; Example 2: lactic acid (85%) 24.0%, purified water 23.4%
  Toremifene base content of the aqueous solution (by weight of the composition): 52.6%
[2]; Example 3: 8.2% toremifene base, formic acid 1.6%, purified water 90.2%
  Dissolution of toremifene base: dissolved
[2]; Example 3: formic acid 1.6%, purified water 90.2%
  Toremifene base content of the aqueous solution (by weight of the composition): 8.2%
[2]; Example 4: 16.7% toremifene base dissolved in methanesulfonic acid 66.6%, then purified water 16.7% added
  Dissolution of toremifene base: A clear solution was obtained
[2]; Example 4: methanesulfonic acid 66.6%, purified water 16.7%
  Toremifene base content of the aqueous solution (by weight of the composition): 16.7%
[2]; Example 5: 3.7% toremifene base, lactic acid (85%) 1.7%, sodium lactate (50%) 4.4%, purified water 90.2%, pH about 5
  Dissolution of toremifene base: dissolved
[2]; Example 5: lactic acid (85%) 1.7%, sodium lactate (50%) 4.4%, purified water 90.2%, pH about 5
  Toremifene base content of the aqueous solution (by weight of the composition): 3.7%
[2]; Example 6: lactic acid (85%) 18.2%, sodium hydroxide 2 N 27.3%, purified water 18.2%, pH about 5
  Toremifene base content of the aqueous solution (by weight of the composition): 36.3%
[2]; Example 7 (reference): 9.1% toremifene base, hydrochloric acid 1 N 31.8%, purified water 59.1%
  Dissolution of toremifene base: not dissolved
[2]; Example 8 (reference): 1.0% toremifene base, sodium gluconate 1.0%, concentrated hydrochloric acid 1.0%, purified water 97.0%
  Dissolution of toremifene base: not dissolved
[2]; Example 9 (reference): 1.0% toremifene base, citric acid (30%) 10.3%, ethanol 88.7%
  Dissolution of toremifene base: not dissolved
[2]; two fold molar excess of lactic acid and purified water
  Concentration of toremifene base solutions that can be prepared: about 50 w-%
[2]; two fold molar excess of lactic acid, pH adjusted to about 5 with sodium hydroxide
  Concentration of toremifene base solutions that can be prepared: about 36 w-%
pKa value of toremifene
  pKa: 8
[3]
  Solubility in water: poorly soluble in water
